Measured values: patent publication US6143749A, “Heterocyclic substituted cyclopentane compounds” (Abbott Laboratories, priority 1996, dated 2000)

Molecular target: adenosine kinase (Homo sapiens, UniProt P55263)
Assay: inhibition of adenosine kinase activity in vitro
Assay type: biochemical
Conditions: Table 1, adenosine kinase
From the text: The adenosine kinase to be inhibited can be located in vitro, in situ or in vivo. Where the adenosine kinase is located in vitro, adenosine kinase is contacted with the inhibitor compound, typically by adding the compound to an aqueous solution containing the enzyme, radiolabeled substrate adenosine, magnesium chloride and ATP. The enzyme can exist in intact cells or in isolated subcellular fractions containing the enzyme. The enzyme is then maintained in the presence of the inhibitor for a period of time and under suitable physiological conditions. Means for determining maintainence times are well known in the art and depend inter alia on the concentrations of enzyme and the physiological conditions. Suitable physiological conditions are those necessary to maintain adenosine kinase viability and include temperature, acidity, tonicity and the like. Inhibition of adenosine kinase can be performed, by example, according to standard procedures well known in the art (Yamada, et al, Comp. Biochem. Physiol. 1982, 71B: 367-372).
In vitro adenosine kinase activity can be measured using any of the standard procedures well known in the art. By way of example, cells containing adenosine kinase, such as IMR-32 human -neuroblastoma cells, are cultured in the presence and absence of an inhibitor. Inhibition is measured as the ability to inhibit phosphorylation of endogenous or externally applied ^14 C-adenosine by these cells. The cells can be intact or broken. The specificity of adenosine kinase inhibitory activity is determined by studying the effects of inhibitors on adenosine A1 and A2a receptor binding, adenosine deaminase activity and adenosine transport.
Numerous inhibitor compounds of the present invention were tested in vitro and found to inhibit adenosine kinase activity. The results of some representative studies are shown below in Tables 1 and 2.

Chain of adenosine kinase (Homo sapiens, UniProt P55263) (P55263 whole entry, species assumed): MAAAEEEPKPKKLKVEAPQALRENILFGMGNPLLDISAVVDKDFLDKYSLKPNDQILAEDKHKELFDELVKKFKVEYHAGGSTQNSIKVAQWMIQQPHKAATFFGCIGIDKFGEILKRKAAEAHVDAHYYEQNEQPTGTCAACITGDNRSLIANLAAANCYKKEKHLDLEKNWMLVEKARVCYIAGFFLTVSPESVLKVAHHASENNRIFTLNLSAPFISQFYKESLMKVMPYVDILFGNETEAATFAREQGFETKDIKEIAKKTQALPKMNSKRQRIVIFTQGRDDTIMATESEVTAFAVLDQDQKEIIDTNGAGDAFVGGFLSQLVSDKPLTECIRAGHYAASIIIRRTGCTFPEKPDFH

Q: Which IC50 does the source give for `N[C@@H]1CC[C@H](n2cc(I)c3c(Cl)ncnc32)C1` here?
A: The IC50 was 330 nM.

Q: With `CC(C)(C)OC(=O)[C@H](CC(N)=O)N([C@H]1C[C@@H](n2cc(I)c3c(Cl)ncnc32)[C@H](O)[C@@H]1O)S(=O)(=O)c1ccc([N+](=O)[O-])cc1[N+](=O)[O-]` as the compound, how does the IC50 read?
A: Its IC50 is 350 nM.

Q: For `CC(C)(C)OC(=O)[C@H](CC(N)=O)N[C@H]1C[C@@H](n2cc(I)c3c(Cl)ncnc32)[C@H](O)[C@@H]1O`, which IC50 is on record?
A: The IC50 was 200 nM.

Q: With `O=C(O)CN[C@H]1C[C@@H](n2cc(I)c3c(Cl)ncnc32)[C@H](O)[C@@H]1O` [drawing 14: R4=HO2 CCH2 NH; R5=Cl; R6=I, N7-((1'R,2'S,3'R,4'S)-2',3'-dihydroxy-4'-(carboxymethylene)amino-cyclopentyl)-4-chloro-5-iodo-pyrrolopyrimidine] as the compound, how does the IC50 read?
A: The IC50 was 150 nM.

Q: Which IC50 does the source give for `Nc1ncnc2c1c(I)cn2[C@@H]1C[C@H](Nc2ncccn2)[C@@H](O)[C@H]1O` here?
A: Its IC50 is 38 nM.

Q: For `N[C@H]1C[C@@H](n2cc(C#Cc3ccccc3)c3c(C#Cc4ccccc4)ncnc32)[C@H](O)[C@@H]1O` [drawing 14: R4=NH2; R5=C≡C--Ph; R6=C≡C--Ph], which IC50 is on record?
A: The IC50 was 4 nM.

Q: With `CC(C)(C)OC(=O)CN[C@H]1C[C@@H](n2cc(I)c3c(Cl)ncnc32)[C@H](O)[C@@H]1O` [drawing 14: R4=t-buOCOCH2 NH; R5=Cl; R6=I, N7-((1'R,2'S,3'R,4'S)-2',3'-dihydroxy-4'-(t-butoxycarbonyl-methylene)amino-cyclopentyl)-4-chloro-5-iodo-pyrrolopyrimidine] as the compound, how does the IC50 read?
A: The IC50 was 28 nM.

Q: Which IC50 does the source give for `Nc1ncnc2c1c(I)cn2[C@@H]1C[C@H](Nc2ccc(Cl)nn2)[C@@H](O)[C@H]1O` here?
A: The IC50 was 20 nM.

Q: For `N[C@@H]1C=C[C@H](n2cc(I)c3c(Cl)ncnc32)C1`, which IC50 is on record?
A: Its IC50 is 3000 nM.

Q: With `NC(=O)C[C@H](N[C@H]1C[C@@H](n2cc(I)c3c(Cl)ncnc32)[C@H](O)[C@@H]1O)C(=O)O` as the compound, how does the IC50 read?
A: The IC50 was 48 nM.

Q: Which IC50 does the source give for `N[C@H]1C[C@@H](n2cc(-c3ccccc3)c3c(Nc4ccccc4)ncnc32)[C@H](O)[C@@H]1O` [drawing 14: R4=NH2; R5=NHPh; R6=Ph] here?
A: Its IC50 is 35 nM.

Q: Which IC50 does the source give for `O[C@@H]1[C@H](O)[C@@H](Nc2ccc(Br)cc2)C[C@H]1n1cc(I)c2c(Cl)ncnc21` here?
A: Its IC50 is 15 nM.

Same assay, conditions: Table 2, adenosine kinase

Q: For `CC(=O)O[C@@H]1[C@H](OC(C)=O)[C@@H](OC(C)=O)C[C@H]1n1cc(I)c2c(Cl)ncnc21` [drawing 24: R5=Cl; R6=I, N7-((1'R,2'S,3'R,4'S)-2',3',4'-triacetoxycyclopentyl)-4-chloro-5-iodo-pyrrolopyrimidine], which IC50 is on record?
A: The IC50 was greater than 100000 nM.

Q: Which IC50 does the source give for `NCC(=O)N[C@H]1C[C@@H](n2cc(I)c3c(Cl)ncnc32)[C@H](O)[C@@H]1O` [drawing 27: R=NH2 CH2 CO, N7-((1'R,2'S,3'R,4'S)-2',3'-dihydroxy-4'-(amino-acetyl)amino-cyclopentyl)-4-chloro-5-iodo-pyrrolopyrimidine] here?
A: The IC50 was 32 nM.

Q: Which IC50 does the source give for `CN(C)CC(=O)N[C@H]1C[C@@H](n2cc(I)c3c(Cl)ncnc32)[C@H](O)[C@@H]1O` [drawing 27: R=(CH3)2 NCH2 CO, N7-((1'R,2'S,3'R,4'S)-2',3'-dihydroxy-4'-(dimethylaminoacetyl)amino-cyclopentyl)-4-chloro-5-iodo-pyrrolopyrimidine] here?
A: The IC50 was 480 nM.

Q: Which IC50 does the source give for `O=C(Cc1cccnc1)N[C@H]1C[C@@H](n2cc(I)c3c(Cl)ncnc32)[C@H](O)[C@@H]1O` here?
A: Its IC50 is 250 nM.

Q: With `CC(=O)O[C@@H]1[C@H](OC(C)=O)[C@@H](OC(C)=O)C[C@H]1n1cc(Cl)c2c(Cl)ncnc21` [drawing 24: R5=Cl; R6=Cl, N7-((1'R,2'S,3'R,4'S)-2',3',4'-triacetoxycyclopentyl)-4,5-dichloro-pyrrolopyrimidine] as the compound, how does the IC50 read?
A: The IC50 was greater than 10000 nM.

Q: Which IC50 does the source give for `COC(=O)N[C@H]1C[C@@H](n2cc(I)c3c(Cl)ncnc32)[C@H](O)[C@@H]1O` [drawing 27: R=CH3 OCO, N7-((1'R,2'S,3'R,4'S)-2',3'-dihydroxy-4'-(methoxycarbonyl)amino-cyclopentyl)-4-chloro-5-iodo-pyrrolo-pyrimidine] here?
A: Its IC50 is 300 nM.

Q: Which IC50 does the source give for `O=C(Cc1ccccn1)N[C@H]1C[C@@H](n2cc(I)c3c(Cl)ncnc32)[C@H](O)[C@@H]1O` here?
A: The IC50 was 175 nM.

Test system: adenosine kinase
Assay: not given
Conditions: literature, in words; cited from earlier work

Q: For `NC[C@H]1O[C@@H](n2cnc3c(N)ncnc32)[C@H](O)[C@@H]1O` [5'-amino,5'-deoxyadenosine], which “reported to inhibit adenosine kinase; the most potent” value (“reported to inhibit adenosine kinase” for short) is on record?
A: The value was “most potent”.

Q: Which “reported to inhibit adenosine kinase” value does the source give for `Nc1ncnc2c1c(I)cn2[C@@H]1O[C@H](CO)[C@@H](O)[C@H]1O` [5-iodotubercidin] here?
A: The value was “most potent”.

Q: With `C[C@H]1O[C@@H](n2cc(I)c3c(N)ncnc32)[C@H](O)[C@@H]1O` [5'-deoxy-5-iodotubercidin] as the compound, how does the “reported to inhibit adenosine kinase” value read?
A: Its value is “most potent”.
